How the values were obtained:
[1] = Pharmacokinetic study of YCHD components and phase II metabolites in ANIT-induced cholestatic rats (UHPLC-MS/MS, sulfatase enzymolysis); assay type: in vivo, rat; conditions: for AUC(0-∞) / Ka: Model group (ANIT 50 mg/kg cholestatic rats); for AUC(0-∞) / Ka / Cmax / Tmax / CL/F / MRT inf / Vd/F / half-life: plasma; for Cmax / Tmax / CL/F / MRT inf / Vd/F / half-life: rat, po, 12 g/kg; for CL/F: read-out: CLz/F; for MRT inf: read-out: MRT (0-∞) (converted); for Vd/F: read-out: Vz/F; for half-life: read-out: t1/2z
Protocol: (§1) To explore the pharmacokinetic properties of YCHD following intragastric administration in rats, a rapid and sensitive method involving the use of UHPLC-MS/MS (Agilent 6460 series, Agilent Technologies, Santa Clara, CA, United States) was developed and validated for the simultaneous quantification of 10 active components of rat plasma. The quantification was conducted in ESI negative ionization mode, and the mass spectrometry conditions were as follows: capillary voltage, 3500 V; gas flow, 12 L/min; nebulizer, 40 psi; gas temperature, 350°C; and delta EMV (-), 400.
(§2) To each 50 μL plasma sample, 10 μL of internal standard solution (paeoniflorin, 1000 ng/mL) and 300 μL of a mixed solution of methanol and acetonitrile (v/v, 1:1; containing 1% formic acid) were added. Subsequently, the solution was vortex mixed for 5 min. After centrifugation at 15,000 rpm for 5 min, the supernatant was transferred completely into a tube, before being evaporated under N2 at 40°C. The residue was then dissolved in 50 μL of 50% methanol–water (v/v, 1:1) through vortexing for 5 min, after centrifugation at 15,000 rpm for 10 min. Finally, 5 μL of the supernatant sample was injected into the UHPLC-MS/MS system for analysis.
The rats were randomly divided into two groups (n = 5 for each group). […] The blood samples were centrifuged at 4000 rpm for 10 min, and the supernatant plasma was harvested. Plasma samples (50 μL) were immediately processed as outlined in Section “Chromatographic and Mass Spectrometry Conditions.”
(§3) Additional plasma samples (50 μL) were enzymatically hydrolyzed with 50 μL of enzyme solution (65.86 mg of sulfatase, dissolved in 2 mL of sodium acetate buffer, pH 5.0) for phase II metabolite quantification, in accordance with our previous study ([Ding et al., 2012]). After being vortex mixed for 5 min, the mixture was incubated at 37°C for 30 min and then returned to room temperature. Subsequently, the samples were processed as outlined in Section “Chromatographic and Mass Spectrometry Conditions” for UHPLC-MS/MS analysis. During routine analysis, each analytical run included six blank plasma samples, a set of calibration samples, a set of QC samples, and unknowns.
(§4) All data are presented as mean ± SD. A one-way analysis of variance was used to compare data between two groups using SPSS (Version 21.0). The differences were considered to be statistically significant when p < 0.05 and highly significant when p < 0.01 or p < 0.001. Pharmacokinetic data analysis was performed using DAS 2.1.1 software (Mathematical Pharmacology Professional Committee of China, Shanghai, China).
(§5) The specific contents of the phase II metabolites of these components were detected indirectly by evaluating the content difference of their prototypes in samples after enzymolysis and before enzymolysis
(§6) CG = Ca −[MG × (CGG/MGG + CGe/MGe)]
(§7) Ca, CGG, and CGe represent the concentration of genipin, genipin-1-β-D-gentiobioside, and geniposide after enzymolysis of sulfatase, respectively. MG, MGG-, and MGe represent the mass of genipin, genipin-1-β-D-gentiobioside, and geniposide, respectively.

[2] = Pharmacokinetic study of YCHD components and phase II metabolites in normal rats (UHPLC-MS/MS, sulfatase enzymolysis); assay type: in vivo, rat; conditions: for Tmax: po, 12 g/kg; for CL/F: read-out: CLz/F; for Vd/F: read-out: Vz/F; for direct detection of the prototype in rat plasma after YCHD administration: before enzymolysis, transformed into phase II metabolites completely
Protocol: as §1, with “400. A 5 μL extraction sample was injected into the column (Agilent SB-C18 column, 2.1 mm × 50 mm, 1.8 μm) and eluted at 0.4 mL/min with a gradient elution of water (with 0.4% v/v formic acid) (A) and acetonitrile (B) (0–3 min, 5–60% B; 3–5 min, 60–90% B; 5–5.1 min, 90–5% B; and re-equilibration for 3 min).” for “400.”
as §2
The rats were randomly divided into two groups (n = 5 for each group). […] After 24 h, the two groups of rats received a single oral dose of YCHD (12 g/kg). Blood was collected in heparinized tubes at 5, 15, 30, 45, 60, 120, 240, 360, 480, 720, and 1440 min after administration. The blood samples were centrifuged at 4000 rpm for 10 min, and the supernatant plasma was harvested. Plasma samples (50 μL) were immediately processed as outlined in Section “Chromatographic and Mass Spectrometry Conditions.”
as §3, §4
as §5, with “After sulfatase-aided enzymolysis, all the phase II metabolites could transform into their prototypes, including rhein, emodin, genipin, and capillarisin. The” for “The”
as §6
as §7, with “geniposide, respectively. The pharmacokinetic curves of phase II metabolites are illustrated in Figure 4B.” for “geniposide, respectively.”

[3] = Identification of components and metabolites of YCHD in rat plasma, bile, urine and feces (UHPLC/Q-TOF-MS); assay type: in vivo; conditions: rats, oral YCHD 12 g/kg, urine, feces
Protocol: After centrifuging at 4000 rpm for 10 min, supernatant plasma was harvested into heparinized tubes and then stored at -20°C for preservation. The rats in the second group (n = 6) were kept individually in metabolic cages to collect urine and feces. […] Subsequently, the rats were orally administered a single dose of YCHD (12 g/kg of body weight). […] For the third group of rats (n = 6), bile duct intubation was implemented, and blank bile samples were collected before administration. After the administration of YCHD at 12 g/kg of body weight, the drug-containing bile samples were collected.
Plasma, bile, and urine samples (200 μL each) were separately precipitated with six times of methanol–acetonitrile mixed solution (v/v, 1:1; containing 1% formic acid). After being vortex mixed for 5 min and centrifuged at 15,000 rpm for 5 min at 4°C, the supernatant was separated into another clean tube and dried under a gentle stream of nitrogen at 45°C. Subsequently, the residue was reconstituted in 100 μL of 50% methanol–water (v/v) and then vortex mixed for 10 min. After another round of centrifugation at 15,000 rpm for 5 min at 4°C, 5 μL of the supernatant was analyzed by UHPLC-MS/MS. A 0.5 g sample of naturally dried feces was supplemented with 2 mL of 80% methanol–water (v/v) and then ultrasonically extracted for 30 min at 4°C. After being centrifuged at 15,000 rpm for 10 min, the supernatant was dried under a gentle stream of nitrogen at 45°C. Finally, the residue was reconstituted in 1 mL of 50% methanol–water (v/v) and then vortex mixed for 10 min. After another round of centrifugation at 15,000 rpm for 5 min at 4°C, 5 μL of the supernatant sample was injected into the UHPLC-MS/MS system for analysis.
Separations were conducted on an Agilent SB-C18 column (2.1 mm × 50 mm, 1.8 μm) of a UHPLC/Q-TOF-MS system (Waters, Corp., Milford, MA, United States) maintained at 40°C.
A Synapt G2 quadrupole time-of-flight (Q/TOF) MS/MS system (Waters, Corp., Manchester, United Kingdom) equipped with an electrospray ionization (ESI) interface was operated in negative ionization mode and controlled by MassLynx software (Version 4.1). The optimized conditions for maximum detection of metabolites were as follows: the capillary voltage was set at 3.0 kV, extraction cone voltage was set at 10 and 15 V, source temperature was maintained at 120°C, and desolvation temperature was maintained at 450°C. […] An MS^E approach using a dynamic ramp of collision energy was also applied at two (low and high collision energies) scan functions. The following parameters were set: Function 1 (low energy)—mass scan range, 100–1000; scan time, 0.25 s; interscan delay, 0.05 s; collision energy, 4 V. Function 2 (high energy)—mass scan range, 100–1000; scan time, 0.2 s; interscan delay, 0.05 s; collision energy ramp, 10–30 V. Data were acquired using Masslynx^TM (Version 4.1. Waters, Crop., Milford, MA, United States), and Metabolynx^TM (Waters, Crop., Milford, MA, United States) was applied for post-acquisition data processing.

[4] = Control group (normal rats), single oral YCHD 12 g/kg, plasma
[5] = Sprague Dawley, rat, plasma, in normal and cholestatic rats after oral administration of YCHD
[6] = Sprague Dawley, rat, Control group (normal rats), single oral YCHD 12 g/kg, plasma
[7] = rat, Control group (normal rats), single oral YCHD 12 g/kg, plasma

With `O=C(O)/C=C/c1ccc(O)c(O)c1` [Caffeic acid] the “AUC(0-∞)” value ([1]; single oral YCHD 12 g/kg) was 32651.4 ± 19640.7 µg·min/L, the Ka ([1]; single oral YCHD 12 g/kg) was 75.2 ± 24.5 min⁻¹ and the Cmax ([1]; Sprague Dawley) was 78.9 ± 4.9 ng/mL. The Tmax ([1]; Sprague Dawley) was 24 min, the CL/F ([1]; Sprague Dawley) was 1190 ± 95 mL/min/kg and the MRT inf ([1]; Sprague Dawley) was 103 min. The Vd/F [1] was 132 ± 39.7 L/kg, the half-life [1] was 80.1 ± 27.5 min and the “AUC(0-∞) increased by, cholestatic model rats compared with normal rats” value ([1]; single oral YCHD 12 g/kg) was 191.3%. For the same compound, the “AUC(0-∞) reduced by, cholestatic model rats compared with normal rats” value ([1]; single oral YCHD 12 g/kg) was 48.9%, the “Cmax increased by, cholestatic model rats compared with normal rats” value ([1]; single oral YCHD 12 g/kg) was 138.8% and the “Cmax reduced by, cholestatic model rats compared with normal rats” value ([1]; single oral YCHD 12 g/kg) was 72.4%. For the same compound, the “AUC(0-∞)” value [2, 4] was 63847.8 ± 53249.0 µg·min/L, the Ka [2, 4] was 119.2 ± 82.6 min⁻¹ and the Tmax ([2]; Sprague Dawley, rat, plasma, Control group (normal rats), single oral YCHD 12 g/kg, plasma) was 15 min. It also gave a Tmax [2, 5] of at most 27 min, a Cmax [2, 6] of 286 ± 14.5 ng/mL and a CL/F [2, 6] of 445 ± 38 mL/min/kg. For the same compound, the MRT inf ([2]; Sprague Dawley, rat, Control group (normal rats), single oral YCHD 12 g/kg, plasma, read-out: MRT (0-∞) (converted)) was 85.3 min, the Vd/F [2, 7] was 35.7 ± 29.1 L/kg and the half-life ([2]; rat, Control group (normal rats), single oral YCHD 12 g/kg, plasma, read-out: t1/2z) was 56.3 ± 43 min.
In the case of `COc1c(O)cc2oc(Oc3ccc(O)cc3)cc(=O)c2c1O` [Capillarisin], the “Source (biological samples in which the compound was identified)” value [3] is reported as “Urine, feces” and the “direct detection of the prototype in rat plasma after YCHD administration” value (from here on “direct detection of the prototype”) [2] is reported as “could not be detected directly”.
For `O=C(/C=C/c1ccc(O)c(O)c1)O[C@@H]1C[C@](O)(C(=O)O)C[C@@H](O)[C@H]1O` [Chlorogenic acid], the “AUC(0-∞)” value ([1]; single oral YCHD 12 g/kg) was 21437.2 ± 12572.8 µg·min/L, the Ka ([1]; single oral YCHD 12 g/kg) was 38.945 ± 18.022 min⁻¹ and the Cmax [1] was 78.9 ± 4.9 ng/mL. For the same compound, the Tmax [1] was 27 min, the CL/F [1] was 1360 ± 523 mL/min/kg and the MRT inf [1] was 1990 min. The Vd/F [1] was 2110 ± 1660 L/kg, the half-life [1] was 1660 ± 2120 min and the “AUC(0-∞)” value [2, 4] was 11559.2 ± 5248.0 µg·min/L. It also gave a Ka [2, 4] of 19.0 ± 16.288 min⁻¹, a Tmax [2, 5] of at most 27 min and a Tmax ([2]; rat, plasma, Control group (normal rats), single oral YCHD 12 g/kg, plasma) of 15 min. It also gave a Cmax [2, 7] of 33 ± 4.5 ng/mL, a CL/F [2, 7] of 1480 ± 921 mL/min/kg and a Vd/F [2, 7] of 3800 ± 2060 L/kg.
For `Cc1cc(O)c2c(c1)C(=O)c1cc(O)cc(O)c1C2=O` [Emodin], the “Source (biological samples in which the compound was identified)” value [3] was “Plasma, bile, urine, feces” and the “direct detection of the prototype” value [2] was “could not be detected directly”.
For `COC(=O)C1=CO[C@@H](O)[C@@H]2C(CO)=CC[C@H]12` [Genipin], the “Source (biological samples in which the compound was identified)” value [3] was “Bile, urine, feces” and the “direct detection of the prototype” value [2] was “could not be detected directly”.
With `COC(=O)C1=COC(OC2OC(C(=O)O)C(O)C(O)C2O)C2C(CO)=CCC12` (stereo not shown) [M2, Genipin-1-O-gluA] the “Source (biological samples in which the compound was identified)” value [3] was “Plasma, bile, urine, feces”.
With `COC(=O)C1=COC(OS(=O)(=O)O)C2C(CO)=CCC12` (stereo not shown) [M3, Genipin-1-O-SO3] the “Source (biological samples in which the compound was identified)” value [3] was “Bile, urine, feces”.
With `CC(=O)c1ccc(OS(=O)(=O)O)cc1` [M6, 4-Hydroxyacetophenone-1-O-SO3] the “Source (biological samples in which the compound was identified)” value [3] was “Plasma, bile, urine, feces”.
For `Cc1cc(O)c2c(c1)C(=O)c1cc(OS(=O)(=O)O)cc(O)c1C2=O` [M7, Emodin-O-SO3], the “Source (biological samples in which the compound was identified)” value [3] was “Plasma, urine, feces”.

From PMC5962729 (Frontiers in Pharmacology, 2018)
